This passage reports viability results from paper PMC12040169 (PLOS Biology, 2025).

A short description of the first series: in vitro. The settings on record: human, hela cells, % viability.
Turning to `Cc1cccnc1NC(=O)c1c(O)c2ccccc2n(C)c1=O` [CBK261431], the viability (in general, a read-out of living cells in per cent, often relative to untreated cells) at 28.5 h, 10 µM turned out to be 96%. Still for that read-out and setting: with `CCn1c(=O)c(C(=O)NCCN2CCCCC2)c(O)c2ccccc21` [CBK261432C] the figure was 97.7%; with `O=[N+]([O-])c1cccc(-c2nc(-c3ccccc3)c(-c3ccc4oc5ccc(-c6[nH]c(-c7cccc([N+](=O)[O-])c7)nc6-c6ccccc6)cc5c4c3)[nH]2)c1` [CBK261433], 87.5%; with `N=c1n(-c2ccccc2)c(O)c(C(c2ccncc2)c2c(O)n(-c3ccccc3)c(=N)n(-c3ccccc3)c2=O)c(=O)n1-c1ccccc1` (centres unmarked) [CBK261438], 82%.

As for `CC(=O)NS(=O)(=O)c1ccc(Nc2ccc([N+](=O)[O-])c3nonc23)cc1` [CBK261443], the viability at 28.5 h, 10 µM was found to be 89.7%. Still for that read-out and setting: with `Cc1cc(C)nc(NS(=O)(=O)c2ccc(Nc3ccc4nonc4c3[N+](=O)[O-])cc2)n1` [CBK261444] the figure was 103%; with `CCc1nnc(NS(=O)(=O)c2ccc(Nc3ccc4nonc4c3[N+](=O)[O-])cc2)s1` [CBK261445], 98%; with `CC12CN3CC(C)(CN(C1)C3c1ccc(Br)cc1)C2=O` (centres unmarked) [CBK261452], 92.1%. Same read-out and setting: the result for `COc1cc(C2N3CC4(C)CN2CC(C)(C3)C4=O)ccc1O` (centres unmarked) [CBK261453] reads 99.6%. The same measure, in the same setting: the result for `CC1CCN(CCOCC(O)CNS(=O)(=O)O)CC1` (centres unmarked) [CBK261454N] reads 124%. As to `NC(=O)C1CCN(S(=O)(=O)c2ccc([N+](=O)[O-])cc2)CC1` [CBK261455], the viability at 28.5 h, 10 µM is 87%. As to `CN(CCO)S(=O)(=O)c1ccccc1[N+](=O)[O-]` [CBK261457], the viability at 28.5 h, 10 µM was 102%. The same measure, in the same setting: the result for `CN(Cc1ccccc1)S(=O)(=O)c1ccccc1[N+](=O)[O-]` [CBK261458] reads 92.3%; that for `Cc1ncc(COP(=O)(O)O)c(/C=N/c2ccc3ccccc3c2)c1O` [CBK261460], 106%. The same measure, in the same setting: the result for `O=C(O)/C=C/C(=O)Nc1ccccc1C(=O)O` [CBK261461] reads 101%; that for `CN(C)CCCO/N=C(\c1ccccc1)c1ccncc1` [CBK261464G], 95.3%; that for `CN1C2CCC1CC(OC(=O)CCN1CCOCC1)C2` (centres unmarked) [CBK261465], 97.4%. Still for that read-out and setting: with `CN(C)CCCNc1c(N)c(=O)oc2ccccc12` [CBK261468] the figure was 94.3%; with `O=c1oc2ccccc2c(NCCCN2CCOCC2)c1[N+](=O)[O-]` [CBK261471], 120%; with `O=C(Nc1cccc2cccnc12)c1cccc2ccccc12` [CBK261473], 72.7%. For the compound `O=C(/C=C/c1ccco1)Nc1cc2ccccc2cc1NC(=O)/C=C/c1ccco1` [CBK261474], the viability at 28.5 h, 10 µM came to 99.5%. For `CC(=O)C12CCCCC1CC1C3CC(C)C4(O)CC(O)CCC4(C)C3CCC12C` (centres unmarked) [CBK261479], the viability at 28.5 h, 10 µM came to 91.8%. Still for that read-out and setting: the result for `COc1cc(/C=N/NC(=O)C2COc3ccccc3O2)cc([N+](=O)[O-])c1O` (centres unmarked) [CBK261480] reads 89.1%.

In the case of `CC(C)Cc1ccc(C(C)c2nc3ccccc3[nH]2)cc1` (centres unmarked) [CBK261484], the viability at 28.5 h, 10 µM came out at 89.7%. Regarding `Nc1ccc(Oc2ccc(-n3c(=O)c4cc5c(=O)n(-c6ccc(Oc7ccc(N)cc7)cc6)c(=O)c5cc4c3=O)cc2)cc1` [CBK261489], the viability at 28.5 h, 10 µM was determined as 104%. Still for that read-out and setting: the result for `CC(=O)N/C(=C\c1ccccc1)C(=O)NC(C)C(=O)O` (centres unmarked) [CBK261491] reads 99.1%; that for `Nc1ccc(S(=O)(=O)O)c2cccc(S(=O)(=O)O)c12` [CBK261492N], 99.6%. On the same count and under the same terms, with `Nc1nc(N)nc(-c2ccc(-c3nc(N)nc(N)n3)cc2)n1` [CBK261494] the figure was 90.4%; with `O=C(O)c1cccc(N2C(=O)C3C4C=CC(C3C2=O)C2C(=O)N(c3cccc(C(=O)O)c3)C(=O)C42)c1` (centres unmarked) [CBK261495], 110%; with `CN1CCN(CCC(=O)N/N=C/c2ccc3c(c2)OCO3)CC1` [CBK261498], 91.5%.

In the case of `COc1cccc(/C=N/NC(=O)CCN2CCN(C)CC2)c1O` [CBK261499], the viability at 28.5 h, 10 µM was found to be 91.3%.

For the compound `CN1CCN(CCC(=O)N/N=C/c2ccccn2)CC1` [CBK261501], the viability at 28.5 h, 10 µM was determined as 114%.

For the compound `CN1CCN(CCC(=O)N/N=C/c2c[nH]c3ccccc23)CC1` [CBK261502], the viability at 28.5 h, 10 µM is 94.7%.

For the compound `CN1CCN(CCC(=O)N/N=C/c2ccsc2)CC1` [CBK261505], the viability at 28.5 h, 10 µM is 94.8%. The same measure, in the same setting: the result for `COc1c2c(nc3ccccc13)OC(C(C)(O)CO)C2` (centres unmarked) [CBK261506] reads 87.6%; that for `Cc1ccc2nc(-c3ccc(N)cc3)sc2c1S(=O)(=O)O` [CBK261510], 96.3%; that for `[O-][N+]1=C2CCc3c(no[n+]3[O-])C2(O)CC1N1CCOCC1` (centres unmarked) [CBK261515], 112%.

In the case of `CN1CCN(Cc2ccccc2[N+](=O)[O-])CC1` [CBK261524], the viability at 28.5 h, 10 µM came out at 85.5%. Same read-out and setting: the result for `O=C(O)CN(CC(=O)O)S(=O)(=O)c1ccc(Cl)cc1` [CBK261526] reads 92.2%. On the same count and under the same terms, the result for `CCN(CC)Cc1c(O)ccc2c(C#N)c(C)n(-c3ccccc3)c12` [CBK261527C] reads 94.9%; that for `O=C(O)CCCC(=O)Nc1cccc([N+](=O)[O-])c1` [CBK261530], 101%; that for `COc1cccc(CN(C)C2CCN(C)CC2)c1OC` [CBK261532], 97.7%. Same read-out and setting: the result for `NS(=O)(=O)c1ccc(/N=C/c2cccc(O)c2O)cc1` [CBK261533] reads 87.8%. For `COc1cc2c(cc1OC)CN(Cc1ccccc1[N+](=O)[O-])CC2` [CBK261535], the viability at 28.5 h, 10 µM amounted to 89.8%. Same read-out and setting: with `NS(=O)(=O)c1ccc(NC(=O)CCCOc2ccc(Cl)cc2Cl)cc1` [CBK261536] the figure was 104%; with `CCOC(=O)C1CCCCN1Cc1ccc(O)c(OC)c1` (centres unmarked) [CBK261541], 96.9%; with `CCOc1ccc(NC(=O)C2C3c4ccccc4C(c4ccccc43)C2C(=O)O)cc1` (centres unmarked) [CBK261544], 102%. The same measure, in the same setting: with `O=C(Nc1ccc(-c2nc(-c3ccccc3)c3cc(NC(=O)c4cccs4)ccc3n2)cc1)c1cccs1` [CBK261547] the figure was 86%; with `O=[N+]([O-])c1ccc(O)c(/C=N/c2ccc3cc4ccc(/N=C/c5cc([N+](=O)[O-])ccc5O)cc4nc3c2)c1` [CBK261557], 57.4%.

The same series, now with this note: human, hela cells, % viability, bulk resorufin, single well.
As to `COc1ccc(N2C(=O)NC(=O)/C(=C\c3ccc(O)c(O)c3)C2=O)cc1` [CBK261436], the viability at 28.5 h, 10 µM came to 92%. On the same count and under the same terms, the result for `C=CCN1C(=O)/C(=N\Nc2ccc(S(=O)(=O)O)cc2)C(=O)NC1=S` [CBK261440] reads 92%.

For the compound `Oc1ccc(CN2CCN(c3cccc(Cl)c3)CC2)cc1` [CBK261528], the viability at 28.5 h, 10 µM amounted to 109%.

`Oc1cccc(CN2CCN(c3cccc(Cl)c3)CC2)c1` [CBK261543]: the viability at 28.5 h, 10 µM worked out at 90.1%. Same read-out and setting: with `COc1ccc(CN2CCN(Cc3ccccc3)CC2)c(OC)c1` [CBK261553] the figure was 115%; with `O=C(O)c1cccc(NC(=O)c2cc([N+](=O)[O-])cc([N+](=O)[O-])c2)c1` [CBK261555], 92.8%; with `CCN1CCN(Cc2cc(Br)c(OC)cc2OC)CC1` [CBK261566], 103%.
